Experimental data published in paper PMC8887130 (Genes & Development, 2022).

Assays:
CF II (hClp1-hPcf11) [1] = target: T1, CF II (hClp1-hPcf11) (Homo sapiens, UniProt Q92989); test: […]'-dATP titration in reconstituted pre-mRNA cleavage, half-maximal activation; assay type: biochemical
CF II (hClp1-hPcf11) [2] = target: CF II (hClp1-hPcf11) (Homo sapiens, UniProt Q92989, E22A); test: biochemical
CF II (hClp1-hPcf11) [3] = target: CF II (hClp1-hPcf11) (Homo sapiens, UniProt Q92989, R288A/R293K); test: biochemical
CF II (hClp1-hPcf11) (Homo sapiens, UniProt Q92989, R288A/R293K), sequence (Q92989 whole entry R288A/R293K): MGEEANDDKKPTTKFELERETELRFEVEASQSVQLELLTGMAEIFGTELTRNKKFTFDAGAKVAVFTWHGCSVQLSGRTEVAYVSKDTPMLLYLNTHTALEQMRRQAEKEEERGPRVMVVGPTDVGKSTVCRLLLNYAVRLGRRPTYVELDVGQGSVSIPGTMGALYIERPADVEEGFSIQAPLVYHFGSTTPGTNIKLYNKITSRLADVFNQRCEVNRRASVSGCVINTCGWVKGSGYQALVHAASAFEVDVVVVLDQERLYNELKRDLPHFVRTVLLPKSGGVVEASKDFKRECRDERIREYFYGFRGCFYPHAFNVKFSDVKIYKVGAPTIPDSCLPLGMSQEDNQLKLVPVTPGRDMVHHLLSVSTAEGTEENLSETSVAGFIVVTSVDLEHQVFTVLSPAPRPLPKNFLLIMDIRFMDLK
CF II (hClp1-hPcf11) (Homo sapiens, UniProt Q92989, R288A/R293K), sequence (O94913 2-1555 partner): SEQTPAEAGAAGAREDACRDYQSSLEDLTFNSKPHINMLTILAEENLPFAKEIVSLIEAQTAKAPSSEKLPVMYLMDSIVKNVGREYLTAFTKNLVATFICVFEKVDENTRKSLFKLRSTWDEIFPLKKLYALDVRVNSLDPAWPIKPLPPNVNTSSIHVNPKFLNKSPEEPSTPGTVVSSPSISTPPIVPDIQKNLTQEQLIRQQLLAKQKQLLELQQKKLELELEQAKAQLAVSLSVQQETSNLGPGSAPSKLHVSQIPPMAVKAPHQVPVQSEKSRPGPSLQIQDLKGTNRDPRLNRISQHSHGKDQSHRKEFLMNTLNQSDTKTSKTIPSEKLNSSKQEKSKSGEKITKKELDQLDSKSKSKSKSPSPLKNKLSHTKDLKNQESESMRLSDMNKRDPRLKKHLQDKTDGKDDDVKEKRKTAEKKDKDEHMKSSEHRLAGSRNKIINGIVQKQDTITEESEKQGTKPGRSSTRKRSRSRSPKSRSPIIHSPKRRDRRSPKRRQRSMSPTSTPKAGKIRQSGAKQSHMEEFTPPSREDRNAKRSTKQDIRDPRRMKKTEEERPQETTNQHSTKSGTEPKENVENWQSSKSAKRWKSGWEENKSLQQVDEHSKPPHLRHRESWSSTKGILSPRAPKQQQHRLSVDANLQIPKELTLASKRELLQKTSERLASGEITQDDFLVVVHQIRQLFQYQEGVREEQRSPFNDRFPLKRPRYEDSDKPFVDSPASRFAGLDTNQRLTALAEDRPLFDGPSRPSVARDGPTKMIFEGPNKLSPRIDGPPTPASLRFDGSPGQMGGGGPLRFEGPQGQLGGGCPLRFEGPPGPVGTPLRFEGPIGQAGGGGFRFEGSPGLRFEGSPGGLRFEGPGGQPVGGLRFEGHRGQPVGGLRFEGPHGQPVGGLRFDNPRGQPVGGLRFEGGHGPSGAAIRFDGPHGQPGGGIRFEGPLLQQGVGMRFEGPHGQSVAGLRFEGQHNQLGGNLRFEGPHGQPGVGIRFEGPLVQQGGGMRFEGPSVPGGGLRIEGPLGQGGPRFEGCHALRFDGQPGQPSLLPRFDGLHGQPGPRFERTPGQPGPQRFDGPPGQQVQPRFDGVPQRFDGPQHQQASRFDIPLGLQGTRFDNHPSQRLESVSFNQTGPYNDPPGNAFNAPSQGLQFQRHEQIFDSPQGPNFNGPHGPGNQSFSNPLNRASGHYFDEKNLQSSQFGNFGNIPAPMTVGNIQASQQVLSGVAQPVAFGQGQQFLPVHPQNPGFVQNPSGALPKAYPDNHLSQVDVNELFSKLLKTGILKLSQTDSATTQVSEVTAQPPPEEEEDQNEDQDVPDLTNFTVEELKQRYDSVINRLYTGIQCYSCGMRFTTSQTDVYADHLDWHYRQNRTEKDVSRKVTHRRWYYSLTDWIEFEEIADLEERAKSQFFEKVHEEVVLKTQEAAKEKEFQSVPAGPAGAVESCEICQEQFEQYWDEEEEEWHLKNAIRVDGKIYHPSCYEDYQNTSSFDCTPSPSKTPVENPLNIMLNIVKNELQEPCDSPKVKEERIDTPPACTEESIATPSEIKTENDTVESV

CF II (hClp1-hPcf11) [4] = target: T1, CF II (hClp1-hPcf11); test: biochemical
CF II (hClp1-hPcf11) [5] = target: CF II (hClp1-hPcf11) (Homo sapiens, UniProt Q92989, E22Q); test: biochemical
CF II (hClp1-hPcf11) (Homo sapiens, UniProt Q92989, E22Q), sequence (Q92989 whole entry E22Q): as the sequence (Q92989 whole entry R288A/R293K) above, with E22Q, A288R, K293R counted along it
CF II (hClp1-hPcf11) (Homo sapiens, UniProt Q92989, E22Q), sequence (O94913 2-1555 partner): as the sequence (O94913 2-1555 partner) above

T1 sequence (Q92989 whole entry): as the sequence (Q92989 whole entry R288A/R293K) above, with A288R, K293R counted along it
T1 sequence (O94913 2-1555 partner): as the sequence (O94913 2-1555 partner) above
CF II (hClp1-hPcf11) (Homo sapiens, UniProt Q92989, E22A), sequence (Q92989 whole entry E22A): as the sequence (Q92989 whole entry R288A/R293K) above, with E22A, A288R, K293R counted along it
CF II (hClp1-hPcf11) (Homo sapiens, UniProt Q92989, E22A), sequence (O94913 2-1555 partner): as the sequence (O94913 2-1555 partner) above

Row | EC50 (CF II (hClp1-hPcf11) [1]) [µM] | EC50 (CF II (hClp1-hPcf11) [2]) [µM] | EC50 (CF II (hClp1-hPcf11) [3]) [µM] | EC50 (CF II (hClp1-hPcf11) [4]) [µM] | EC50 (CF II (hClp1-hPcf11) [5]) [µM] | Structure (SMILES)
1 | 46.3 ± 7.4 | – | – | – | – | Nc1ncnc2c1ncn2[C@@H]1O[C@H](COP(=O)(O)OP(=O)(O)OP(=O)(O)O)C[C@H]1O [3'-dATP]
2 | – | 10.9 ± 2.7 | 5.7 ± 3.4 | 0.5 ± 0.1 | 95.9 ± 19.8 | Nc1ncnc2c1ncn2[C@@H]1O[C@H](COP(=O)(O)OP(=O)(O)OP(=O)(O)O)[C@@H](O)[C@H]1O [ATP]
